What was measured:
Assay in all cases: Cell proliferation assay (CellTiter-Glo, 72 hours)
[1] = target: T1, BaF3 KIF5B-RET (Homo sapiens, UniProt P07949); assay type: cell-based; conditions: anti-cell proliferation, read-out: BaF3 KIF5B-RET IC50
T1 construct: fused on or other part: P33176 (Kinesin-1 heavy chain)
Source text: (§1) The KIF5B-RET gene was synthesized at GenScript and cloned into pCDH-CMV-MCS-EF1-Puro plasmid (System Biosciences, Inc). KIF5B-RET point mutation V804M was generated at GenScript by PCR and confirmed by sequencing. Ba/F3-KIF5B-RET wild type and mutant were generated by transducing Ba/F3 cells with lentivirus containing KIF5B-RET wide type or mutant. Stable cell lines were selected by puromycin treatment, followed by IL-3 withdrawal. Briefly, 5×10^6 Ba/F3 cells were transduced with lentivirus supernatant in the presence of 8 μg/mL protamine sulfate. The transduced cells were subsequently selected with 1 µg/mL puromycin in the presence of IL3-containing medium RPMI1640, plus 10% FBS. After 10-12 days of selection, the surviving cells were further selected for IL3 independent growth.
(§2) Two thousand cells per well were seeded in 384 well white plate for 24 hrs, and then treated with compounds for 72 hours (37° C., 5% CO2). Cell proliferation was measured using CellTiter-Glo luciferase-based ATP detection assay (Promega) following the manufactures's protocol. IC50 determinations were performed using GraphPad Prism software (GraphPad, Inc., San Diego, Calif.).

[2] = test system: KM12 cell (TPM3-TRKA); assay type: cell-based, human; conditions: Homo sapiens, KM12, anti-cell proliferation
Description: (§3) Human medulla thyroid carcinoma cell line TT (containing RET […] mutation) and acute myelogenous cell line KG-1 were purchased from ATCC. Human colon cancer cell line KMI2 (containing TPM3-TRKA) was obtained from NCI.
as §2

[3] = test system: KG-1; assay type: cell-based, human; conditions: Homo sapiens, KG-1, anti-cell proliferation
Description: as §3, §2

[4] = target: T2, BaF3 EML4-ALK (Homo sapiens, UniProt Q9UM73); assay type: cell-based; conditions: anti-cell proliferation
T2 construct: The EML4-ALK gene (variant 1) was synthesized at GenScript and cloned into pCDH-CMV-MCS-EF1-Puro plasmid (System Biosciences, Inc); fused on or other part: Q9HC35 (Echinoderm microtubule-associated protein-like 4)
T2 sequence (Q9UM73 whole entry, change not shown, the tested form may be a part): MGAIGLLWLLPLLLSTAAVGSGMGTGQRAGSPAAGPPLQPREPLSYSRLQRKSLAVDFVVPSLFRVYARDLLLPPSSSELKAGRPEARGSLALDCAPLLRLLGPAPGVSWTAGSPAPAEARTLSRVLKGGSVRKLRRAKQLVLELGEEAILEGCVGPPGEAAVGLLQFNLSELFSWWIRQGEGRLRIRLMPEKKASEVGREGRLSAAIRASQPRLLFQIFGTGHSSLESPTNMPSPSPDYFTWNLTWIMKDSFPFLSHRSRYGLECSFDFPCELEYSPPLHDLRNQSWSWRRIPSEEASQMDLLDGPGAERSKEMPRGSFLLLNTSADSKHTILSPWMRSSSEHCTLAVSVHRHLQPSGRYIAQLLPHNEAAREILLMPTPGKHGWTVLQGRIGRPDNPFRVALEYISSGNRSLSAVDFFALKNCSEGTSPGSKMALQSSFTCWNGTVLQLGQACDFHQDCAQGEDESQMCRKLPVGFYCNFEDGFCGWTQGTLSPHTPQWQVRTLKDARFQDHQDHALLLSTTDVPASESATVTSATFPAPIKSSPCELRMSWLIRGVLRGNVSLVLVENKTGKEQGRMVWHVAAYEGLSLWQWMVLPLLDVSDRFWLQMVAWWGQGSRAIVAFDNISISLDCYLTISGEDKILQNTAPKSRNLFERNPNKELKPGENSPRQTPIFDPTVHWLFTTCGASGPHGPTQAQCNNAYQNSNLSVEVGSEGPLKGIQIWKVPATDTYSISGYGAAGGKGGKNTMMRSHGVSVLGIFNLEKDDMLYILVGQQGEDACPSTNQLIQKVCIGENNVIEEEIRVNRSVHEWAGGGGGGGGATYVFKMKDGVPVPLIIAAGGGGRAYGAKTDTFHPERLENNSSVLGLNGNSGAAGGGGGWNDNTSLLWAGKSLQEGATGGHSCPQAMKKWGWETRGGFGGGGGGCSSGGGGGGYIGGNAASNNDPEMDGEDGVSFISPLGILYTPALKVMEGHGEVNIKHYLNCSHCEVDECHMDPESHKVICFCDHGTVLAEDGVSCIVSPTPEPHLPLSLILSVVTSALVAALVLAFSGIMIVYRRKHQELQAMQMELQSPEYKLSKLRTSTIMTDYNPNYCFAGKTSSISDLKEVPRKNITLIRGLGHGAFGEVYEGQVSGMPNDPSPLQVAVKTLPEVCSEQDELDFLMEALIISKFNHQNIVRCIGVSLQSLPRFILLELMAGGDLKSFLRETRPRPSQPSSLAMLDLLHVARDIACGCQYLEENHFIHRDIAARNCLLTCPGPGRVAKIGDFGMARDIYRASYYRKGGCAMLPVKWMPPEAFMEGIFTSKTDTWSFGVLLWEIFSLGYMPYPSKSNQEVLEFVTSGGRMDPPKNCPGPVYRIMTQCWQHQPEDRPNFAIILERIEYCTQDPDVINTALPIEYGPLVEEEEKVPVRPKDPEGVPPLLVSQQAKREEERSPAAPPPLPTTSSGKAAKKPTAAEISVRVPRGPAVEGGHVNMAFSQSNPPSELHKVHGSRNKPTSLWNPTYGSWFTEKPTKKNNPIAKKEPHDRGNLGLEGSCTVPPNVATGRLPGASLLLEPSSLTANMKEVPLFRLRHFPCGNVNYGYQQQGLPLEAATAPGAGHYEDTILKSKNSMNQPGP
Description: The EML4-ALK gene (variant 1) was synthesized at GenScript and cloned into pCDH-CMV-MCS-EF1-Puro plasmid (System Biosciences, Inc). Ba/F3-EML4-ALK wild type were generated by transducing Ba/F3 cells with lentivirus containing EML4-ALK wide type. Stable cell lines were selected by puromycin treatment, followed by IL-3 withdrawal. Briefly, 5×10^6 Ba/F3 cells were transduced with lentivirus supernatant in the presence of 8 μg/mL protamine sulfate. The transduced cells were subsequently selected with 1 μg/mL puromycin in the presence of IL3-containing medium RPMI1640, plus 10% FBS. After 10-12 days of selection, the surviving cells were further selected for IL3 independent growth.
as §2

[5] = target: T3, BaF3 KIF5B-RET_V804M (Homo sapiens, UniProt P07949, V804M, cells depend on it); assay type: cell-based; conditions: anti-cell proliferation, read-out: BaF3 KIF5B-RET_V804M IC50
T3 construct: fused on or other part: P33176 (Kinesin-1 heavy chain)
T3 sequence (P07949 whole entry V804M, the tested form may be a part): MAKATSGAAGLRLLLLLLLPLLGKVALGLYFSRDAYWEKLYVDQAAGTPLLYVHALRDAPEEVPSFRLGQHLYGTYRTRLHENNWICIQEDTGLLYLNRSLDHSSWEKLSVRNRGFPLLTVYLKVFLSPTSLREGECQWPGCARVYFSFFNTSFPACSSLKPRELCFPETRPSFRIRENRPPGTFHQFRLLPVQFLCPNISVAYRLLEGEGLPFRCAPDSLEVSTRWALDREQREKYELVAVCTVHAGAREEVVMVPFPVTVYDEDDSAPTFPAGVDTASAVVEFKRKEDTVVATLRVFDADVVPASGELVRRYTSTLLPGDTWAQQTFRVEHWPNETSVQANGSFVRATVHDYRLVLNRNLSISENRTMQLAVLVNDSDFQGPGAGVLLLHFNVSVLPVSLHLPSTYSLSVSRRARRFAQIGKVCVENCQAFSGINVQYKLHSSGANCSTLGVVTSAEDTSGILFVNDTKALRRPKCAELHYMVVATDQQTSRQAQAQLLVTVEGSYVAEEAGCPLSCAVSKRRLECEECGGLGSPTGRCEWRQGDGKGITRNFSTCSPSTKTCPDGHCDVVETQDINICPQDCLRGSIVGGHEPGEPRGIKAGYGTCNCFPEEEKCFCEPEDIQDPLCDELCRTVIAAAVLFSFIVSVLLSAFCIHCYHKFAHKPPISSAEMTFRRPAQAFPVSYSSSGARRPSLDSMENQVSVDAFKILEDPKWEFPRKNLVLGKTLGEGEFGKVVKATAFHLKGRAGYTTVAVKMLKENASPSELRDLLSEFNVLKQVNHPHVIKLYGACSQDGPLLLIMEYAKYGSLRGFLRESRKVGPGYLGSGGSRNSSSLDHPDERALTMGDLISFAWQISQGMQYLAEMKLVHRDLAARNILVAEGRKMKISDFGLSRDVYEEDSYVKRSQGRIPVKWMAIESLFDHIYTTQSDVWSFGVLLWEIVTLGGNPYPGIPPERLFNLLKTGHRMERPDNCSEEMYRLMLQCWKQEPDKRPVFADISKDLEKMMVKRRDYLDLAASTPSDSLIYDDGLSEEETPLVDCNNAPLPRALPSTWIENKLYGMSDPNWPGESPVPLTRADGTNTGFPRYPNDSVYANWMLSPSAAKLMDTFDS
Source text: as §1, §2

[6] = target: T4, BaF3 KIF5B-RET_G810R (Homo sapiens, UniProt P07949, G810R, cells depend on it); assay type: cell-based; conditions: anti-cell proliferation, read-out: BaF3 KIF5B-RET_G810R IC50
T4 construct: fused on or other part: P33176 (Kinesin-1 heavy chain)
T4 sequence (P07949 whole entry G810R, the tested form may be a part): as the sequence (P07949 whole entry V804M, the tested form may be a part) above, with M804V, G810R counted along it
Source text: [The source words this procedure for another variant and reports this variant under the same test.] as §1, §2

T1 sequence (P07949 whole entry, change not shown, the tested form may be a part): as the sequence (P07949 whole entry V804M, the tested form may be a part) above, with M804V counted along it

Work on `C[C@@H]1CCNC(=O)c2cnn3cc4c(nc23)N(Cc2cc(F)cnc2O1)[C@@H]1CCC[C@@H]1O4` [Compound 35, (3aR,11R,21aS)-7-fluoro-11-methyl-2,3,3a,11,12,13,14,21a-octahydro-1H,5H,15H-18,20-(metheno)cyclopenta[5,6][1,4]oxazino[4,3-e]pyrazolo[3,4-h]pyrido[2,3-b][1,5,7,11]oxatriazacyclotetradecin-15-one] yielded a GI50 [1] of 8.8 nM, an IC50 [2] of less than 0.2 nM and an IC50 [3] of 55.7 nM. The GI50 [4] was 1100 nM.
For `C[C@@H]1COc2ncc(F)cc2CN2c3nc4c(cnn4cc3O[C@@H]3CC[C@@H]32)C(=O)N1` [Compound 11, (2aS,11R,19aR)-6-fluoro-11-methyl-1,2,2a,11,12,19a-hexahydro-4H-16,18-(metheno)cyclobuta[5,6][1,4] oxazino[3,4-i]pyrazolo[4,3-f]pyrido[3,2-l][1,4,8,10]oxatriazacyclotridecin-13(10H)-one], the GI50 [5] was 3000 nM, the GI50 [1] was 839 nM and the IC50 [2] was 0.4 nM. It also gave an IC50 [3] of 307 nM.
Compound `CC(=O)N1C[C@@H]2Oc3cn4ncc5c4nc3N(Cc3cc(F)cnc3O[C@@H](C)CNC5=O)[C@@H]2C1` [Compound 36, (3aR,11S,20aS)-2-acetyl-7-fluoro-11-methyl-2,3,3a,12,13,20a-hexahydro-1H, 5H-17,19-(metheno)pyrazolo[4,3-f]pyrido [3,2-l]pyrrolo[3′,4′:5,6][1,4]oxazino[3,4-i][1,4,8,10]oxatriazacyclotridecin-14(11H)-one] has a GI50 [1] of 8000 nM, an IC50 [2] of 1000 nM and an IC50 [3] of 10000 nM. It also gave a GI50 [4] greater than 10000 nM.
With `O=C1N[C@H]2CC[C@H](C2)Oc2ncc(F)cc2CN2c3nc4c1cnn4cc3O[C@H]1CCC[C@H]12` [Compound 41, (3aR,11R,14S,22aS)-7-fluoro-2,3,3a,12,13,14,15,22a-octahydro-1H, 5H-11,14-metheno-19,21-(metheno)cyclopenta[5,6][1,4] oxazino[4,3-e]pyrazolo[3,4-h]pyrido[2,3-b][1,5,7,11]oxatriazacyclopentadecin-16(11H)-one] the GI50 [6] was 156 nM, the GI50 [1] was 5.1 nM and the IC50 [2] was 431 nM. For the same compound, the IC50 [3] was 389 nM and the GI50 [4] was 1450 nM.
Compound `CC1(C)CCOc2ncc(F)cc2CN2c3nc4c(cnn4cc3O[C@H]3CCC[C@H]32)C(=O)N1` [Compound 34, (3aR,21aS)-7-fluoro-13,13-dimethyl-2,3,3a,11,12,13,14,21a-octahydro-1H,5H,15H-18,20-(metheno)cyclopenta[5,6][1,4]oxazino[4,3-e]pyrazolo[3,4-h]pyrido[2,3-b][1,5,7,11]oxatriazacyclotetradecin-15-one] has a GI50 [6] of 651 nM, a GI50 [1] of 62.2 nM and an IC50 [2] of 50 nM. The IC50 [3] was 408 nM and the GI50 [4] was 1000 nM.
`CC(=O)N1C[C@H]2Oc3cn4ncc5c4nc3N(Cc3cc(F)cnc3O[C@@H](C)CNC5=O)[C@H]2C1` [Compound 37, (3aS,11S,20aR)-2-acetyl-7-fluoro-11-methyl-2,3,3a,12,13,20a-hexahydro-1H, 5H-17,19-(metheno)pyrazolo[4,3-f]pyrido [3,2-l]pyrrolo[3′,4′:5,6][1,4]oxazino[3,4-i][1,4,8,10]oxatriazacyclotridecin-14(11H)-one] gave a GI50 [1] of 8000 nM, an IC50 [2] of 1200 nM and an IC50 [3] of 3000 nM. The GI50 [4] was greater than 10000 nM.
`C[C@@H]1COc2ncc(F)cc2CN2c3nc4c(cnn4cc3O[C@H]3CC[C@H]32)C(=O)N1` [Compound 10, (2aR,11R,19aS)-6-fluoro-11-methyl-1,2,2a,11,12,19a-hexahydro-4H-16,18-(metheno)cyclobuta[5,6][1,4] oxazino[3,4-i]pyrazolo[4,3-f]pyrido[3,2-l][1,4,8,10]oxatriazacyclotridecin-13(10H)-one] gave a GI50 [5] of 1210 nM, a GI50 [1] of 274 nM and an IC50 [2] of 0.2 nM. It also gave an IC50 [3] of 78.3 nM and a GI50 [4] of 4000 nM.
`O=C1N[C@H](C2CC2)COc2ncc(F)cc2CN2c3nc4c1cnn4cc3O[C@H]1CCC[C@H]12` [Compound 14, (3aR,12R,20aS)-12-cyclopropyl-7-fluoro-2,3,3a,12,13,20a-hexahydro-1H,5H-17-19-(metheno)cyclopenta[5,6][1,4] oxazino[4,3-i]pyrazolo[4,3-f]pyrido[3,2-l][1,4,8,10]oxatriazacyclotridecin-14(11H)-one] gave a GI50 [6] of 530 nM, a GI50 [1] of 120 nM and an IC50 [2] of 26.6 nM. It also gave an IC50 [3] of 273 nM and a GI50 [4] of 908 nM.
For `C[C@H]1CNC(=O)c2cnn3cc4c(nc23)N(Cc2cc(F)cnc2O1)[C@@H]1CC[C@@H]1O4` [Compound 8, (2aR,10S,19aS)-6-fluoro-10-methyl-1,2,2a,11,12,19a-hexahydro-4H-16,18-(metheno)cyclobuta[5,6][1,4] oxazino[3,4-i]pyrazolo[4,3-f]pyrido[3,2-l][1,4,8,10]oxatriazacyclotridecin-13(10H)-one], the GI50 [5] was 1930 nM, the GI50 [1] was 342 nM and the IC50 [2] was 0.3 nM. For the same compound, the IC50 [3] was 189 nM and the GI50 [4] was 4000 nM.
Work on `O=C1N[C@@H]2CC[C@@H](C2)Oc2ncc(F)cc2CN2c3nc4c1cnn4cc3O[C@H]1CCC[C@H]12` [Compound 42, (3aR,11S,14R,22aS)-7-fluoro-2,3,3a,12,13,14,15,22a-octahydro-1H, 5H-11,14-metheno-19,21-(metheno)cyclopenta[5,6][1,4] oxazino[4,3-e]pyrazolo[3,4-h]pyrido[2,3-b][1,5,7,11]oxatriazacyclopentadecin-16(11H)-one] yielded a GI50 [6] of 17.4 nM, a GI50 [1] of 0.5 nM and an IC50 [2] of 9.8 nM. For the same compound, the IC50 [3] was 41 nM and the GI50 [4] was 338 nM.
`C[C@H]1CNC(=O)c2cnn3cc4c(nc23)N(Cc2cc(F)cnc2O1)[C@H]1CC[C@H]1O4` [Compound 9, (2aS,10S,19aR)-6-fluoro-10-methyl-1,2,2a,11,12,19a-hexahydro-4H-16,18-(metheno)cyclobuta[5,6][1,4] oxazino[3,4-i]pyrazolo[4,3-f]pyrido[3,2-l][1,4,8,10]oxatriazacyclotridecin-13(10H)-one] was tested, and the GI50 [5] was greater than 10000 nM, the GI50 [1] was 2360 nM and the IC50 [2] was 3.3 nM. For the same compound, the IC50 [3] was 1000 nM and the GI50 [4] was 8000 nM.
Work on `O=C1NC[C@@H](O)COc2ncc(F)cc2CN2c3nc4c1cnn4cc3O[C@H]1CCC[C@H]12` [Compound 43, (3aR,12R,21aS)-7-fluoro-12-hydroxy-2,3,3a,11,12,13,14,21a-octahydro-1H, 5H,15H-18,20-(metheno)cyclopenta[5,6][1,4] oxazino[4,3-e]pyrazolo[3,4-h]pyrido[2,3-b][1,5,7,11]oxatriazacyclotetradecin-15-one] yielded a GI50 [6] of 396 nM, a GI50 [1] of 68.9 nM and an IC50 [2] of 109 nM. The IC50 [3] was 359 nM and the GI50 [4] was 2990 nM.
`C[C@H]1CNC(=O)c2cnn3cc4c(nc23)N(Cc2cc(F)cnc2O1)[C@H]1COC[C@H]1O4` [Compound 31, (3aS,11S,20aS)-7-fluoro-11-methyl-1,3,3a,12,13,20a-hexahydro-5H-17,19-(metheno)furo[3′,4′:5,6][1,4]oxazino[3,4-i]pyrazolo[4,3-f]pyrido[3,2-l][1,4,8,10]oxatriazacyclotridecin-14(11H)-one] gave a GI50 [5] greater than 10000 nM, a GI50 [6] greater than 10000 nM and a GI50 [1] of 4000 nM. The IC50 [2] was 365 nM and the IC50 [3] was 10000 nM.
